Experimental data taken from the supplement of paper PMC4862054.

What was measured:
Conditions in all cases: incubation time: 72 h
HCC1599 [1] = assay: normalised response (% of control), CellTiter-Glo; higher = more viable cells (100 = DMSO, 0 = benzethonium chloride kill control)
Summary of the method: (§1)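 Normalised signals at single concentrations make up the values. They come from breast cancer cell lines seeded (20 µl suspension) into 384-well plates with compound at 5 concentrations in 10-fold steps over a compound-specific 10,000-fold range, incubated 72 h, and read for CellTox Green fluorescence then CellTiter-Glo luminescence. Each plate was normalised to 0.1 % DMSO (100) and a positive kill control (0).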

SK-BR-3 = assay: as above
Summary of the method: as §1

MFM-223 [2] = assay: as above
Summary of the method: as §1

BT-549 [3] = assay: as above
Summary of the method: as §1

HCC1143 [4] = assay: as above
Summary of the method: as §1

CAL-148 [5] = assay: as above
Summary of the method: as §1

HDQ-P1 [6] = assay: as above
Summary of the method: as §1

CAL-85-1 [7] = assay: as above
Summary of the method: as §1

CAL-51 [8] = assay: as above
Summary of the method: as §1

CAL-120 [9] = assay: as above
Summary of the method: as §1

MDA-MB-436 [10] = assay: as above
Summary of the method: as §1

MDA-MB-231 [11] = assay: as above
Summary of the method: as §1

MCF-10A [12] = assay: as above
Summary of the method: as §1

DU-4475 [13] = assay: as above
Summary of the method: as §1

BT-474 [14] = assay: as above
Summary of the method: as §1

MDA-MB-468 [15] = assay: as above
Summary of the method: as §1

Hs578T [16] = assay: as above
Summary of the method: as §1

HCC1937 [17] = assay: as above
Summary of the method: as §1

MDA-MB-453 [18] = assay: as above
Summary of the method: as §1

HCC1599 [19] = assay: normalised response (% of control), CellTox Green; higher = less cell death (100 = DMSO, 0 = benzethonium chloride kill control)
Summary of the method: as §1

MFM-223 [20] = assay: as above
Summary of the method: as §1

BT-549 [21] = assay: as above
Summary of the method: as §1

HCC1143 [22] = assay: as above
Summary of the method: as §1

CAL-148 [23] = assay: as above
Summary of the method: as §1

HDQ-P1 [24] = assay: as above
Summary of the method: as §1

CAL-85-1 [25] = assay: as above
Summary of the method: as §1

CAL-51 [26] = assay: as above
Summary of the method: as §1

CAL-120 [27] = assay: as above
Summary of the method: as §1

MDA-MB-436 [28] = assay: as above
Summary of the method: as §1

MDA-MB-231 [29] = assay: as above
Summary of the method: as §1

MCF-10A [30] = assay: as above
Summary of the method: as §1

DU-4475 [31] = assay: as above
Summary of the method: as §1

BT-474 [32] = assay: as above
Summary of the method: as §1

MDA-MB-468 [33] = assay: as above
Summary of the method: as §1

Hs578T [34] = assay: as above
Summary of the method: as §1

HCC1937 [35] = assay: as above
Summary of the method: as §1

MDA-MB-453 [36] = assay: as above
Summary of the method: as §1

SMILES | normalised response (HCC1599 [1]) [%] | normalised response (SK-BR-3) [%] | normalised response (MFM-223 [2]) [%] | normalised response (BT-549 [3]) [%] | normalised response (HCC1143 [4]) [%] | normalised response (CAL-148 [5]) [%] | normalised response (HDQ-P1 [6]) [%] | normalised response (CAL-85-1 [7]) [%] | normalised response (CAL-51 [8]) [%] | normalised response (CAL-120 [9]) [%] | normalised response (MDA-MB-436 [10]) [%] | normalised response (MDA-MB-231 [11]) [%] | normalised response (MCF-10A [12]) [%] | normalised response (DU-4475 [13]) [%] | normalised response (BT-474 [14]) [%] | normalised response (MDA-MB-468 [15]) [%] | normalised response (Hs578T [16]) [%] | normalised response (HCC1937 [17]) [%] | normalised response (MDA-MB-453 [18]) [%] | normalised response (HCC1599 [19]) [%] | normalised response (MFM-223 [20]) [%] | normalised response (BT-549 [21]) [%] | normalised response (HCC1143 [22]) [%] | normalised response (CAL-148 [23]) [%] | normalised response (HDQ-P1 [24]) [%] | normalised response (CAL-85-1 [25]) [%] | normalised response (CAL-51 [26]) [%] | normalised response (CAL-120 [27]) [%] | normalised response (MDA-MB-436 [28]) [%] | normalised response (MDA-MB-231 [29]) [%] | normalised response (MCF-10A [30]) [%] | normalised response (DU-4475 [31]) [%] | normalised response (BT-474 [32]) [%] | normalised response (MDA-MB-468 [33]) [%] | normalised response (Hs578T [34]) [%] | normalised response (HCC1937 [35]) [%] | normalised response (MDA-MB-453 [36]) [%]
CCN(CC)CCNC(=O)c1c(C)[nH]c(/C=C2\C(=O)Nc3ccc(F)cc32)c1C [Sunitinib] (10 nM) | 96.3 | 101 | 105 | 108 | 108 | 106 | 99.3 | 103 | 98.8 | 109 | 96.9 | 107 | 98.5 | 104 | 101 | 102 | 103 | 99.2 | 97.4 | 114 | 98 | 92.9 | 57.7 | 105 | 111 | 89.5 | 108 | 99.3 | 103 | 104 | 109 | 98.4 | 100 | 141 | 82.4 | 66.9 | 107
COc1ccc(-c2cc3c(C)nc(N)nc3n([C@H]3CC[C@H](OCCO)CC3)c2=O)cn1 (100 nM) | 88.3 | 42 | 72.3 | 69.5 | 76.8 | 74.5 | 66.3 | 68.9 | 53.4 | 67.7 | 77 | 64.8 | 58 | 83.2 | 67.2 | 68.8 | 73.7 | 74.5 | 55.7 | 90.3 | 96.2 | 112 | 66.1 | 80.1 | 88.6 | 91.3 | 85.1 | 95.7 | 97.9 | 37.5 | 85.6 | 96.2 | 94.4 | 31 | 89.6 | 107 | 98.1
CCC/C=C/C=C/C(=O)O[C@H]1/C(=C/C(=O)OC)C[C@H]2C[C@H]([C@@H](C)O)OC(=O)C[C@H](O)C[C@@H]3C[C@H](OC(C)=O)C(C)(C)[C@](O)(C[C@@H]4C/C(=C/C(=O)OC)C[C@H](/C=C/C(C)(C)[C@]1(O)O2)O4)O3 [Bryostatin 1] (1 nM) | 99.3 | 66.2 | 104 | 101 | 102 | 116 | 88.6 | 95.5 | 58 | 103 | 102 | 95.9 | 107 | 91.6 | 92.3 | 99.8 | 79.6 | 93 | 103 | 111 | 104 | 111 | 117 | 111 | 75.6 | 97.7 | 91 | 103 | 100 | 113 | 98.5 | 106 | 86.8 | 105 | 94 | 123 | 94.6
c1cc(CN2CCCNCCNCCCNCC2)ccc1CN1CCCNCCNCCCNCC1 [Plerixafor] (100 nM) | 95.3 | 84.1 | 85.1 | 109 | 104 | 89.8 | 103 | 101 | 67.7 | 100 | 92 | 97.1 | 79.7 | 88.1 | 98.8 | 97.6 | 94.8 | 96.6 | 83 | 88.9 | 50.4 | 95.9 | 95.1 | 94.4 | 101 | 92.5 | 59.6 | 93.5 | 74.2 | 96.5 | 97.7 | 91.7 | 85.5 | 89.8 | 99.3 | 73.9 | 91.3
Cn1cc(CNCC2CCN(c3ncc(C(=O)NO)cn3)CC2)c2ccccc21 [Quisinostat] (10 nM) | 89.8 | 70.1 | 103 | 88 | 75.8 | 87.6 | 75.4 | 72.5 | 99.2 | 86.2 | 87.2 | 103 | 78.8 | 83.9 | 106 | 91.2 | 85.7 | 85.2 | 56.9 | 104 | 103 | 95.5 | 114 | 95.8 | 109 | 77.9 | 126 | 91.4 | 92.3 | 101 | 96.7 | 97.8 | 93 | 57.7 | 88.8 | 114 | 97.7
C[C@]12C=CC(=O)C=C1CC[C@@H]1[C@@H]2[C@@H](O)C[C@@]2(C)[C@H]1CC[C@]2(O)C(=O)CO [Prednisolone] (100 nM) | 105 | 104 | 110 | 96 | 102 | 114 | 89.3 | 109 | 112 | 87.4 | 101 | 146 | 102 | 106 | 146 | 109 | 113 | 103 | 95 | 103 | 96.1 | 97.2 | 118 | 103 | 106 | 85.8 | 117 | 102 | 89.9 | 134 | 95.5 | 98.8 | 101 | 108 | 110 | 115 | 104
C[C@]12O[C@H](C[C@]1(O)CO)n1c3ccccc3c3c4c(c5c6ccccc6n2c5c31)CNC4=O [Lestaurtinib] (10 nM) | 96.9 | 82.4 | 97.2 | 109 | 105 | 107 | 102 | 102 | 103 | 92.2 | 93.8 | 101 | 83.7 | 98 | 98.8 | 78.7 | 90.2 | 94.3 | 81.1 | 90.6 | 103 | 100 | 50.3 | 87.7 | 104 | 96.2 | 98.4 | 97.4 | 78.8 | 97.3 | 91.2 | 94.2 | 99.3 | 60 | 108 | 103 | 101
